Reference: US9187429B2, “Phenyl-tetrahydroisoquinoline derivatives” (Hoffmann-La Roche Inc., priority 2012, dated 2015)

Key:
CYP11B2 = CYP11B2 (Homo sapiens (Human), UniProt P19099); assay: G-402 cellular enzyme assay, human CYP11B2 (aldosterone release); type: cell-based; settings: G-402 cells expressing human CYP11B2, 1 μM Deoxycorticosterone
Excerpt: (§1) The expression plasmids contains the ORF for either human/cyno CYP11B1 or CYP11B2 under the control of a suitable promoter (CMV-promoter) and a suitable resistance marker (neomycin). Using standard techniques the expression plasmid is transfected into G-402 cells and these cells are then selected for expressing the given resistance markers. Individual cell-clones are then selected and assessed for displaying the desired enzymatic activity using 11-Deoxycorticosterone (Cyp 11B2) or 11-Deoxycortisol (Cyp 11B1) as a substrate.
(§2) G-402 cells expressing CYP11 constructs were established as described above and maintained in McCoy's 5a Medium Modified, ATCC Catalog No. 30-2007 containing 10% FCS and 400 μg/ml G418 (Geneticin) at 37° C. under an atmosphere of 5% CO2/95% air. […] For assaying enzymatic activity, cells were plated onto 96 well plates and incubated for 16 h. An aliquot of the supernatant is then transferred and analyzed for the concentration of the expected product (Aldosterone for CYP11B2; Cortisol for CYP11B1). The concentrations of these steroids can be determined using HTRF assays from CisBio analyzing either Aldosterone or Cortisol.
(§3) Inhibition of the release of produced steroids can be used as a measure of the respective enzyme inhibition by test compounds added during the cellular enzyme assay. The dose dependent inhibition of enzymatic activity by a compound is calculated by means of plotting added inhibitor concentrations (x-axes) vs. measured steroid/product level (y-axes). The inhibition is then calculated by fitting the following 4-parameter sigmoidal function (Morgan-Mercer-Flodin (MMF) model) to the raw data points using the least squares method:
(§4) [formula] wherein, A is the maximum y value, B is the EC50 factor determined using XLFit, C is the minimum y value and D is the slope value.
(§5) EC50 values for compounds claimed herein were tested with the G402-based assay system described. Cyp 11B2 enzyme activity was tested in presence of 1 μM Deoxycorticosterone and variable amounts of inhibitors; Cyp 11B1 enzyme activity was tested in presence of 1 μM Deoxycortisol and variable amounts of inhibitors.

human CYP11B1 = human CYP11B1 (Homo sapiens (Human), UniProt P15538); assay: G-402 cellular enzyme assay, human CYP11B1 (cortisol release); type: cell-based; settings: G-402 cells expressing human CYP11B1, 1 μM Deoxycortisol
Excerpt: as §1, §2, §3, §4, §5

Chain of human CYP11B1 (P15538 25-503): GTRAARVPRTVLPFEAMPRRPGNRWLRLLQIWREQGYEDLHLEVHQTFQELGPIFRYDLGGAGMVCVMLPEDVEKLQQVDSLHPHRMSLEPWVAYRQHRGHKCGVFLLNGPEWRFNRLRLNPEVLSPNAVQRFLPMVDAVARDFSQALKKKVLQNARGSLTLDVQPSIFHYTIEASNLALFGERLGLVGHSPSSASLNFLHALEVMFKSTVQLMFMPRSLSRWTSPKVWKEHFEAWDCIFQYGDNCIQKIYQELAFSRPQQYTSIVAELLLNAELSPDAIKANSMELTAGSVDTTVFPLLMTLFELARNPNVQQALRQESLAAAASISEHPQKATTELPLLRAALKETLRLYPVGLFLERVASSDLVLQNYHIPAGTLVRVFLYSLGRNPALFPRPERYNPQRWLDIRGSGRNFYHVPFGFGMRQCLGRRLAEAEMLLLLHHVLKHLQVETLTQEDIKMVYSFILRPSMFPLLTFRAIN
Chain of CYP11B2 (P19099 25-503): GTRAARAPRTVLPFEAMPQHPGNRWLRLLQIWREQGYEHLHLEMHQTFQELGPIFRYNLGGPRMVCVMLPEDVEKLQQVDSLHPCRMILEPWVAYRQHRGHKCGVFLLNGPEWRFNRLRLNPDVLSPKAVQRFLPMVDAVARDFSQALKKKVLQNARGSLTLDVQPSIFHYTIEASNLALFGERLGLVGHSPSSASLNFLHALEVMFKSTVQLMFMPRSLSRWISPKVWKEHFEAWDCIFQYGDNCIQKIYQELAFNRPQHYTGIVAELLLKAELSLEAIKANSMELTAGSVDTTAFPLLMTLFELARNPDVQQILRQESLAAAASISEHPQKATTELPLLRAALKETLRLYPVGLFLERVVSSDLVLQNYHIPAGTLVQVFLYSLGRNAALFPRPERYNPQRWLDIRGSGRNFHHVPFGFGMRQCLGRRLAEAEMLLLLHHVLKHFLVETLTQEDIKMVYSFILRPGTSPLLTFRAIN

Structure (SMILES) | EC50 (CYP11B2) [nM] | EC50 (human CYP11B1) [nM]
CCC(=O)N[C@@H]1c2cncc(-c3ccc(C(F)(F)F)cc3)c2CC[C@@H]1C (single isomer, unassigned) [Example 68, N-[(7S,8S or 7R,8R)-7-Methyl-4-(4-trifluoromethyl-phenyl)-5,6,7,8-tetrahydro-isoquinolin-8-yl]-propionamide] | 658 | 10700
CCC(=O)N[C@H]1c2cncc(-c3ccc(C(F)(F)F)cc3)c2CC[C@@H]1C (single isomer, unassigned) [Example 69, N-[(7S,8R or 7R,8S)-7-Methyl-4-(4-trifluoromethyl-phenyl)-5,6,7,8-tetrahydro-isoquinolin-8-yl]-propionamide] | 11 | 742
CCC(=O)N[C@H]1c2cncc(-c3ccc(C(F)(F)F)cc3)c2CC[C@H]1C (single isomer, unassigned) [Example 70, N-[(7R,8R or 7S,8S)-7-Methyl-4-(4-trifluoromethyl-phenyl)-5,6,7,8-tetrahydro-isoquinolin-8-yl]-propionamide] | 42 | 3030
Cc1ccc(C2(O)CCCc3c(-c4ccc(C#N)cc4)cncc32)cc1C (single isomer, unassigned; (+)) [Example 15, (+)-(S or R)-4-(8-(3,4-Dimethylphenyl)-8-hydroxy-5,6,7,8-tetrahydroisoquinolin-4-yl)benzonitrile] | 5 | 21
CCC(=O)NC1CCc2c(-c3ccc(C#N)cc3)cncc21 (single isomer, unassigned; (+)) [Example 19, (+)-(R or S)—N-(4-(4-Cyanophenyl)-6,7-dihydro-5H-cyclopenta[c]pyridin-7-yl)propionamide] | 12 | 174
CCC(=O)NC1CCCc2c(-c3ccc(C(F)(F)F)cc3)cncc21 (single isomer, unassigned; (+)) [Example 23, (+)-(R or S)—N-(4-(4-(Trifluoromethyl)phenyl)-5,6,7,8-tetrahydroisoquinolin-8-yl)propionamide] | 31 | 3690
CCC(=O)NC1CCCc2c(-c3ccc(Cl)cc3)cncc21 (single isomer, unassigned; (+)) [Example 26, (+)-(R or S)—N-(4-(4-Chlorophenyl)-5,6,7,8-tetrahydroisoquinolin-8-yl)propionamide] | 17 | 503
CCC(=O)NC1CCCc2c(-c3ccc(F)c(C)c3)cncc21 (single isomer, unassigned; (+)) [Example 29, (+)-(R or S)—N-(4-(4-fluoro-3-methylphenyl)-5,6,7,8-tetrahydroisoquinolin-8-yl)propionamide] | 4 | 241
CCC(=O)NC1CCCc2c(-c3ccc(Cl)cc3F)cncc21 (single isomer, unassigned; (+)) [Example 32, (+)-(R or S)—N-(4-(4-Chloro-2-fluorophenyl)-5,6,7,8-tetrahydroisoquinolin-8-yl)propionamide] | 19 | 617
CCC(=O)NC1CCCc2c(-c3ccc(C(F)(F)F)cc3F)cncc21 (single isomer, unassigned; (+)) [Example 35, (+)-(R or S)—N-(4-(2-Fluoro-4-(trifluoromethyl)phenyl)-5,6,7,8-tetrahydroisoquinolin-8-yl)propionamide] | 71 | 6680
CCC(=O)NC1CCCc2c(-c3ccc(Cl)c(F)c3)cncc21 (single isomer, unassigned; (+)) [Example 38, (+)-(R or S)—N-(4-(4-Chloro-3-fluorophenyl)-5,6,7,8-tetrahydroisoquinolin-8-yl)propionamide] | 7 | 214
CCC(=O)NC1CCCc2c(-c3ccc(C(F)(F)F)c(F)c3)cncc21 (single isomer, unassigned; (+)) [Example 41, (+)-(R or S)—N-(4-(3-Fluoro-4-(trifluoromethyl)phenyl)-5,6,7,8-tetrahydroisoquinolin-8-yl)propionamide] | 16 | 1810
CCC(=O)NC1CCc2c(-c3ccc(C(F)(F)F)cc3)cncc21 (single isomer, unassigned; (+)) [Example 51, (+)-(R or S)—N-(4-(4-(Trifluoromethyl)phenyl)-6,7-dihydro-5H-cyclopenta[c]pyridin-7-yl)propionamide] | 25 | 2260
C[C@@H](O)C(=O)NC1CCc2c(-c3ccc(C(F)(F)F)cc3)cncc21 (single isomer, unassigned; (+)) [Example 54, (+)-(R)-2-Hydroxy-N—((R or S)-4-(4-(trifluoromethyl)phenyl)-6,7-dihydro-5H-cyclopenta[c]pyridin-7-yl)propanamide] | 89 | 3170
CCC(=O)NC1CCc2c(-c3ccc(Cl)c(F)c3)cncc21 (single isomer, unassigned; (+)) [Example 57, (+)-(R or S)—N-(4-(4-Chloro-3-fluorophenyl)-6,7-dihydro-5H-cyclopenta[c]pyridin-7-yl)propionamide] | 7 | 103
CCC(=O)NC1CCc2c(-c3ccc(F)c(C)c3)cncc21 (single isomer, unassigned; (+)) [Example 60, (+)-(R or S)—N-(4-(4-Fluoro-3-methylphenyl)-6,7-dihydro-5H-cyclopenta[c]pyridin-7-yl)propionamide] | 2 | 64
CCC(=O)NC1CCc2c(-c3ccc(C(F)(F)F)cc3F)cncc21 (single isomer, unassigned; (+)) [Example 63, (+)-(R or S)—N-(4-(2-Fluoro-4-(trifluoromethyl)phenyl)-6,7-dihydro-5H-cyclopenta[c]pyridin-7-yl)propionamide] | 30 | 1720
CCS(=O)(=O)NC1CCc2c(-c3ccc(C(F)(F)F)cc3)cncc21 (single isomer, unassigned; (+)) [Example 66, (+)-(R or S)—N-(4-(4-(Trifluoromethyl)phenyl)-6,7-dihydro-5H-cyclopenta[c]pyridin-7-yl)ethanesulfonamide] | 280 | 14200
CCS(=O)(=O)NC1CCc2c(-c3ccc(C(F)(F)F)c(F)c3)cncc21 (single isomer, unassigned; (+)) [Example 73, (+)-(R or S)—N-(4-(3-Fluoro-4-(trifluoromethyl)phenyl)-6,7-dihydro-5H-cyclopenta[c]pyridin-7-yl)ethanesulfonamide] | 44.4 | 1870
OC1CCCc2c(-c3ccc(C(F)(F)F)cc3)cncc21 (single isomer, unassigned; (+)) [Example 106, (+)-(R or S)-4-(4-(Trifluoromethyl)phenyl)-5,6,7,8-tetrahydroisoquinolin-8-ol] | 4.6 | 159
Cc1ccc(C2(O)CCCc3c(-c4ccc(C#N)cc4)cncc32)cc1C (single isomer, unassigned; (-)) [Example 16, (−)-(R or S)-4-(8-(3,4-Dimethylphenyl)-8-hydroxy-5,6,7,8-tetrahydroisoquinolin-4-yl)benzonitrile] | 72 | 488
CCC(=O)NC1CCc2c(-c3ccc(C#N)cc3)cncc21 (single isomer, unassigned; (-)) [Example 18, (−)-(S or R)—N-(4-(4-Cyanophenyl)-6,7-dihydro-5H-cyclopenta[c]pyridin-7-yl)propionamide] | 879 | 7220
CCC(=O)NC1CCCc2c(-c3ccc(Cl)cc3)cncc21 (single isomer, unassigned; (-)) [Example 25, (−)-(S or R)—N-(4-(4-Chlorophenyl)-5,6,7,8-tetrahydroisoquinolin-8-yl)propionamide] | 467 | 23100
CCC(=O)NC1CCCc2c(-c3ccc(F)c(C)c3)cncc21 (single isomer, unassigned; (-)) [Example 28, (−)-(S or R)—N-(4-(4-Fluoro-3-methylphenyl)-5,6,7,8-tetrahydroisoquinolin-8-yl)propionamide] | 226 | 30400
CCC(=O)NC1CCCc2c(-c3ccc(C(F)(F)F)cc3F)cncc21 (single isomer, unassigned; (-)) [Example 34, (−)-(S or R)—N-(4-(2-Fluoro-4-(trifluoromethyl)phenyl)-5,6,7,8-tetrahydroisoquinolin-8-yl)propionamide] | 4490 | 42400
CCC(=O)NC1CCCc2c(-c3ccc(Cl)c(F)c3)cncc21 (single isomer, unassigned; (-)) [Example 37, (−)-(S or R)—N-(4-(4-Chloro-3-fluorophenyl)-5,6,7,8-tetrahydroisoquinolin-8-yl)propionamide] | 1260 | 31400
